Test [1] deals with ADP-induced platelet aggregation in canine platelet rich plasma. Put plainly: Inhibition of ADP-Induced ex-vivo Platelet Aggregation after oral administration. The conditions noted are these: Canis lupus familiaris, Platelet, dog. In kind it is in vivo, mongrel dogs. As for the experimental part:
Inhibition of ADP-Induced ex-vivo Platelet Aggregation
Control blood samples are obtained 5-10 minutes prior to administration of the test compound in mongrel dogs weighing from 10 to 20 kg. The compound is administered intragasticly, via aqueous gavage, or orally, via gelatin capsule. Blood samples (5 ml) are then obtained at 30 minute intervals for 3 hours, and at 6, 12, and 24 hours after dosing. Each blood sample is obtained by venipuncture of the cephalic vein and is collected directly into a plastic syringe containing one part 3.8% trisodium citrate to nine parts blood.
Ex vivo Canine Platelet Aggregation
The blood samples are centrifuged at 1000 rpm for 10 minutes to obtain platelet rich plasma (PRP). After removal of the PRP, the sample is centrifuged for an additional 10 minutes at 2000 rpm to obtain platelet poor plasma (PPP). Platelet count in the PRP is determined by using a Coulter Counter (Coulter Electronics, Hialeah, Fla.). If the concentration of platelets in the PRP is greater than 300,000 platelets/μl, then the PRP is diluted with PPP to adjust the platelet count to 300,000 platelets/μl. Aliquots of PRP (250 μl) are then placed in siliconized glass cuvettes (7.25×55 mm, Bio/Data Corp, Horsham, Pa.). Epinephrine (final concentration of 1 μM) is then added to the PRP, which is incubated for one minute at 37° C. A stimulator of platelet aggregation, ADP at a final concentration of 10 μM, is then added to the PRP. Platelet aggregation is monitored spectrophotometrically utilizing a light transmission aggregometer (Bio/Data Platelet Aggregation Profiler, Model PAP-4, Bio/Data Corp, Horsham, Pa.). For compound to be tested, the rate of change (slope) of light transmittance and the maximum light transmittance (maximum aggregation) is recorded in duplicate. Platelet aggregation data are reported as the percent decrease (mean±SEM) in slope or maximum aggregation as compared to data obtained from control PRP, which is prepared from blood samples obtained prior to administration of the test compound.

Test [2] deals with fixed activated platelets. Put plainly: Platelet Aggregation Assay (fixed-activated platelets, fibrinogen-mediated aggregation). In kind it is cell-based. The conditions noted are these: aggregation initiated by human fibrinogen 250 μg/ml, read-out: Inhibition of Fixed Platelet Aggregation (IC50 μM). The method, then:
Preparation of Fixed-Activated Platelets
Platelets are isolated from human platelet concentrates using the gel-filtration technique as described by Marguerie, G. A., et al., J. Biol. Chem. 254, 5357-5363 (1979) and Ruggeri, Z. M., et al., J. Clin. Invest. 72, 1-12 (1983). The platelets are suspended at a concentration of 2×10^8 cells/ml in a modified calcium-free Tyrode's buffer containing 127 mM sodium chloride, 2 mM magnesium chloride, 0.42 mM Na2HPO4, 11.9 mM NaHCO3, 2.9 mM KCl, 5.5 mM glucose, 10 mM HEPES, at a pH of 7.35 and 0.35% human serum albumin (HSA). These washed platelets are activated by addition of human a-thrombin at a final concentration of 2 units/ml, followed by thrombin inhibitor I-2581 at a final concentration of 40 μM. To the activated platelets is added paraformaldehyde to a final concentration of 0.50% and this incubated at room temperature for 30 minutes. The fixed activated platelets are then collected by centrifugation at 650×g for 15 minutes. The platelet pellets are washed four times with the above Tyrode's-0.35% HSA buffer and resuspended to 2×10^8 cells/ml in the same buffer.
Platelet Aggregation Assay
The fixed activated platelets are incubated with a selected dose of the compound to be tested for platelet aggregation inhibition for one minute and aggregation initiated by addition of human fibrinogen to a final concentration of 250 μg/ml. A platelet aggregation profiler Model PAP-4 is used to record the platelet aggregation. The extent of inhibition of aggregation is expressed as the percentage of the rate of aggregation observed in the absence of inhibitor.

The mark [3] stands for this setting: 1 h after dosing, read-out: % Inhibition of ex-vivo Platelet Aggregation After Oral Administration, 1 h.
The mark [4] stands for this setting: 3 h after dosing, read-out: % Inhibition of ex-vivo Platelet Aggregation After Oral Administration, 3 h.
The mark [5] stands for this setting: 6 h after dosing, read-out: % Inhibition of ex-vivo Platelet Aggregation After Oral Administration, 6 h.
The mark [6] stands for this setting: 12 h after dosing, read-out: % Inhibition of ex-vivo Platelet Aggregation After Oral Administration, 12 h.
Where [7] appears, read: 24 h after dosing, read-out: % Inhibition of ex-vivo Platelet Aggregation After Oral Administration, 24 h.

Where two headings read alike, the source gives them in different places. Bounds are passed on as bounds.

For orientation: IC50 means the concentration that inhibits the measured activity by half. `CCN(CC(=O)N[C@@H](CC(=O)O)C(=O)N[C@H](C(=O)O)C(C)C)C(=O)CCCC1CCNCC1` [Example 2, N-[N-[N-(4-(piperidin-4-yl)butanoyl)-N-ethylglycyl]aspartyl]valine]: the inhibition at 10 mg/kg in test [1] (setting [3]) was 90%; in test [1] (setting [4]) it was 60%; in test [1] (setting [5]), < 20%. Moreover, in test [2] (Homo sapiens, Platelet), the half-maximal inhibitory concentration (IC50) was 0.027 µM.

In the case of `CCN(CC(=O)NC(CC(=O)O)C(=O)NC(Cc1ccccc1)C(=O)O)C(=O)CCCC1CCNCC1` (centres unmarked) [Example 3, N-[N-[N-(4-piperidin-4-yl)-N-ethylglycyl]aspartyl]phenylalanine], the inhibition at 10 mg/kg in test [1] (setting [3]) was 40%; in test [1] (setting [4]), < 20%. Moreover, the IC50 in test [2] (Homo sapiens, Platelet) was 0.064 µM.

Take `CCN(CC(=O)NC(CC(=O)O)C(=O)NC(C(=O)O)C(C)C)C(=O)CCCC1CCNCC1` (centres unmarked) [Example 4]: the inhibition at 10 mg/kg in test [1] (setting [3]) is 90%; in test [1] (setting [4]) it was 50%; in test [1] (setting [5]), < 20%. The IC50 in test [2] (Homo sapiens, Platelet) was determined as 0.72 µM.

With `CCN(CC(=O)NC(CC(=O)O)C(=O)NC(CC(C)(C)C)C(=O)O)C(=O)CCCC1CCNCC1` (centres unmarked) [Example 5], the inhibition at 10 mg/kg in test [1] (setting [3]) stood at 100%; in test [1] (setting [4]) it was 90%; in test [1] (setting [5]), 35%. Besides, in test [2] (Homo sapiens, Platelet), the IC50 stood at 0.082 µM.

Take `CCCCC(NC(=O)C(CC(=O)O)NC(=O)CN(CC)C(=O)CCCC1CCNCC1)C(=O)O` (centres unmarked) [Example 6]: the inhibition at 10 mg/kg in test [1] (setting [3]) was 80%; in test [1] (setting [4]) it was 20%. The IC50 in test [2] (Homo sapiens, Platelet) amounted to 0.13 µM.

In the case of `CCN(CC(=O)NC(CC(=O)O)C(=O)NC(Cc1cccc2ccccc12)C(=O)O)C(=O)CCCC1CCNCC1` [Example 7, N-[N-[N-(4-(piperidin-4-yl)butanoyl)-N-ethylglycyl]aspartyl]-L-b-naphth-1-yl alanine], the inhibition at 5 mg/kg in test [1] (setting [3]) was 30%; in test [1] (setting [4]), < 20%. In addition, the IC50 in test [2] (Homo sapiens, Platelet) was found to be 0.11 µM.

As to `CCOC(=O)C(CC1CCCCC1)NC(=O)C(CC(=O)O)NC(=O)CN(CC)C(=O)CCCC1CCNCC1` [Example 11, N-[N-[N-(4-(piperidin-4-yl)butanoyl)-N-ethylglycyl]aspartyl]-L-b-cyclohexyl alanine, ethyl ester], the inhibition at 5 mg/kg came to 100% in test [1] (setting [3]), 100% in test [1] (setting [4]), 60% in test [1] (setting [5]) and 37% in test [1] (setting [6]). The IC50 in test [2] (Homo sapiens, Platelet) stood at 0.064 µM.

Turning to `CCN(CC(=O)NC(CC(=O)O)C(=O)NC(CC1CCCCC1)C(N)=O)C(=O)CCCC1CCNCC1` [Example 12, N-[N-[N-(4-(piperidin-4-yl)butanoyl)-N-ethylglycyl]aspartyl]-L-b-cyclohexyl alanine amide], the inhibition at 5 mg/kg in test [1] (setting [3]) was 100%; in test [1] (setting [4]), 100%; in test [1] (setting [5]), 100%; in test [1] (setting [6]), 98%; in test [1] (setting [7]), 50%. Further, in test [2] (Homo sapiens, Platelet), the half-inhibitory concentration (IC50) is 0.097 µM.

Take `CCN(CC(=O)NC(CC(=O)O)C(=O)NC(CC1CCCC2CCCCC21)C(=O)O)C(=O)CCCC1CCNCC1` [Example 14, N-[N-[N-(4-(piperidin-4-yl)butanoyl)-N-ethylglycyl]aspartyl]-L-b-decahydronaphth-1-yl alanine]: the inhibition at 5 mg/kg was 100% in test [1] (setting [3]); 100% in test [1] (setting [4]); 100% in test [1] (setting [5]); 100% in test [1] (setting [6]); 95% in test [1] (setting [7]). The IC50 in test [2] (fixed activated human platelets) turned out to be 0.019 µM.

For `CCN(CC(=O)N[C@@H](CC(=O)O)C(=O)NCCC1CCCCC1)C(=O)CCCC1CCNCC1` [Example 15, 2-cyclohexyl-N-[N-[N-(4-(piperidin-4-yl)butanoyl)-N-ethylglycyl]aspartyl]-ethylamine], the inhibition at 5 mg/kg is 35% in test [1] (setting [3]) and 18% in test [1] (setting [4]). Besides, the IC50 in test [2] (Homo sapiens, Platelet) was determined as 0.072 µM.
